Reference: PMC1253704, “Nitromusk and Polycyclic Musk Compounds as Long-Term Inhibitors of Cellular Xenobiotic Defense Systems Mediated by Multidrug Transporters” (Environmental Health Perspectives, 2004)
Where two headings read alike, the source gives them in different places. Marks after values point to notes of the source that are not given here.

Experiments:
[1] = biological target: T1, efflux transporters in mussel gills (MXR transporters) (Mytilus californianus, UniProt B2WTH9); test: Competitive substrate/transporter inhibition assay: rhodamine B accumulation in mussel gill tissue disks; format: cell-based; conditions: concentration causing 10% of maximal inhibition; mean ± SD; probit regression; 1 μM rhodamine B, 90 min, 15°C
T1 sequence (B2WTH9 1-1311): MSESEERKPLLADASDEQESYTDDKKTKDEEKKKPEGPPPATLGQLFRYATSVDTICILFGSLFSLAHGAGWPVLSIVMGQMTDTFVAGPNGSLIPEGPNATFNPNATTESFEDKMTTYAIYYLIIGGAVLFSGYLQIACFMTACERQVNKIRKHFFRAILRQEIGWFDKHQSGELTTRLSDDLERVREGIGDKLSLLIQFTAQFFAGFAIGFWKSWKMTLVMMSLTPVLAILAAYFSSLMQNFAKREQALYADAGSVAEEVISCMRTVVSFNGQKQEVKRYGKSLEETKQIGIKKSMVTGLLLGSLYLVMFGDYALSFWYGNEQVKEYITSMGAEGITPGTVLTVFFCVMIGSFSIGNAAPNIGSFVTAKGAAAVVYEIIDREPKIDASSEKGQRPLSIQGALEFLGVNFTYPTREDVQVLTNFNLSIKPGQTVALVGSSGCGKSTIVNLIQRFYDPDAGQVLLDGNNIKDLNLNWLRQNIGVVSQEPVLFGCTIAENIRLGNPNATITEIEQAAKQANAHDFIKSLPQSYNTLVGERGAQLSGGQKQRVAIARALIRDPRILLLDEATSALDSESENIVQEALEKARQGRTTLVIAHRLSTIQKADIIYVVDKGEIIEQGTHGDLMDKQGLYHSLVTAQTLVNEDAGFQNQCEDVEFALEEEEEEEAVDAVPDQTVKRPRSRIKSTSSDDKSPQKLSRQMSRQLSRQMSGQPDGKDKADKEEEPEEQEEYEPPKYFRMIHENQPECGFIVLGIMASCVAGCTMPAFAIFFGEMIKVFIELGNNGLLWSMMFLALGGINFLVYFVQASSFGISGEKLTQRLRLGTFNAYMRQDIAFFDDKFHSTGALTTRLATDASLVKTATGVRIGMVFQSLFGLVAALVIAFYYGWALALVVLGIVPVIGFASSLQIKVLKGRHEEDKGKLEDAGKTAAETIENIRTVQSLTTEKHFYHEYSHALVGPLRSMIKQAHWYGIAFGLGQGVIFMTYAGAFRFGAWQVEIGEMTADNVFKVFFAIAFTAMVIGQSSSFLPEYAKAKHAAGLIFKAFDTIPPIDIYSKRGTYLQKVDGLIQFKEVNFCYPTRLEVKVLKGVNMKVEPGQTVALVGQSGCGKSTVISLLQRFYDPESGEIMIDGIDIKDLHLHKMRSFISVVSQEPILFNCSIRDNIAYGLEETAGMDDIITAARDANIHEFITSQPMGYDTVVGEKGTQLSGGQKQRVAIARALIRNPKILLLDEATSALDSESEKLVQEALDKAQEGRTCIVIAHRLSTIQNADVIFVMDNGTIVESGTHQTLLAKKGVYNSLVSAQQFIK
Method: The fluorescent dye rhodamine B was used as an indicator of efflux transporter activity. […] Test solutions were prepared in FSW with 1 μM rhodamine B. Stocks of the test compounds dissolved in ethanol were added to FSW to the desired concentrations, and all solutions were adjusted to 1% ethanol along with an ethanol control. […] Incubations were performed in glass petri dishes (diameter, 5 cm) in a volume of 10 mL.
(§1) Gill tissue disks were incubated in test solutions with gentle rocking for 90 min at 15°C in the dark (n = 2–5 tissue disks per dish). After exposure, the tissue disks were briefly washed twice in FSW to remove external rhodamine B, frozen on dry ice or in liquid nitrogen, and stored at −20°C in the dark. […] The sonicates were then centrifuged at 13,000g for 5 min, and the supernatant was transferred to black 96-well microplates (Packard Instrument Co., Meriden, CT). The amount of dye in the supernatant was determined with a fluorescence microplate reader (Packard FluoroCount; […]). Rhodamine B extracts were kept dark and on ice at all times. At each reading, background fluorescence was determined with pure n-butanol and subtracted from each value.
(§2) Transport activities in treated gill disks were normalized relative to nontreated controls that were run for each individual. The ratios, which indicate relative increases in fluorescence, were used as a measure of inhibition by each compound at the specified concentrations. […] IC10 and IC50 values were determined by probit analysis using a macro program for Microsoft Excel written by J. Greve (Fraunhofer-Institut für Umweltchemie und Ökotoxikologie, Schmallenberg, Germany).

[2] = biological target: T1, efflux transporters in mussel gills (MXR transporters); test: Long-term inhibition: transporter activity assay after 2 hr exposure and 0, 24, 48 hr washing in FSW; format: cell-based; conditions: 1 μM test compound 2 hr
Method: as §1
(§3) To examine the duration of inhibitory effects after exposure to test compounds, six to nine gill tissue disks were incubated with 1 μM of test compounds for 2 hr. Transporter activity was then assayed in one-third of the disks immediately after exposure and in the others after 24 hr and 48 hr of washing in fresh FSW (50 mL). FSW was changed after 24 hr. During exposure and washing, dishes were gently rocked at 15°C in the dark. The transporter activity assay was performed with 1 μM rhodamine B as described above.
as §2

[3] = cited from earlier work
[4] = set-up: method as in Käfferlein et al. 1998; conditions: ref Käfferlein et al. 1998, cited from earlier work
[5] = test system: efflux transporters in mussel gills (MXR transporters); test: Long-term inhibition: transporter activity assay after 2 hr exposure and 0, 24, 48 hr washing in FSW; format: cell-based, Mytilus californianus; conditions: 1 μM test compound 2 hr
Method: as §1, §3, §2

[6] = after 24 hr of washing, paired t-test p < 0.05

Compound | IC10 [1] [µM] | continuing inhibition of transporter activity, treatment versus control (in words) [2, 6] | continuing inhibition of transporter activity, treatment versus control (in words) ([2]; after 48 hr of washing) | Log Kow ([3]; ref Balk et al. (2001)) | Concentrations found in blood plasma ([4]; human blood plasma) | Concentrations found in body fat and breast milk ([4]; human body fat and breast milk) [µmol/kg] | Log Kow ([3]; ref Liu (2004)) | continuing inhibition of transporter activity, treatment versus control (in words) [5, 6] | continuing inhibition of transporter activity, treatment versus control (in words) ([5]; after 48 hr of washing)
Cc1c([N+](=O)[O-])c(C)c([N+](=O)[O-])c(C(C)(C)C)c1[N+](=O)[O-] [MX, 1-tert-Butyl-3,5-dimethyl-2,4,6-trinitrobenzene] | 0.14 ± 0.12 | significant | trend of reduced activity | 4.9^a | nanomolar range | 0.2 to 0.3 | – | – | –
CCN(CC)c1ccc2c(-c3ccccc3C(=O)O)c3ccc(=[N+](CC)CC)cc-3oc2c1 [Rhodamine B, reference compound] | – | – | – | – | – | – | 1.5^c | – | –
CC(=O)c1cc(C(C)(C)C)cc2c1CCC2(C)C [ADBI, 4-Acetyl-1,1-dimethyl-6-tert-butylindane] | 0.39 ± 0.34 | – | – | 5.9^a | – | – | – | clear trends of increased rhodamine levels | trend of reduced activity
CC1COCc2cc3c(cc21)C(C)(C)C(C)C3(C)C (centres unmarked) [HHCB, 1,3,4,6,7,8-Hexahydro-4,6,6,7,8,8-hexamethyl-cyclopenta-γ-[2]-benzopyran] | 0.37 ± 0.16 | – | – | 5.9^a | – | – | – | significant | trend of reduced activity
CC(=O)c1c(C)c([N+](=O)[O-])c(C(C)(C)C)c([N+](=O)[O-])c1C [MK, 1-tert-Butyl-3,5-dimethyl-2,6-dinitro-4-acetylbenzene] | 0.09 ± 0.12 | – | – | 4.3^a | – | – | – | clear trends of increased rhodamine levels | trend of reduced activity
CC(=O)c1cc2c(cc1C)C(C)(C)C(C)C2C(C)C (centres unmarked) [ATII, 5-Acetyl-1,1,2,6-tetramethyl-3-isopropylindane] | 0.32 ± 0.04 | – | – | 6.3^a | – | – | – | significant | complete recovery
